Laboratory results published in article PMC7770057 (Journal of medicinal chemistry, 2020).
Entries after “also recorded” stand apart in the source; their conditions may differ.

Assays:
MEK1/2 = MEK1/2 protein levels in cells by Western blot; settings: HT-29 cells, 0.3, 1 and 3 μM, 24 h
HT-29 cells = experiment: Antiproliferation; settings: for GI50: Homo sapiens, HT-29, 72 h, read-out: HT-29 GI50; for antiproliferation potency compared to compound 28: HT-29 cells; for antiproliferation potency improvement over comparator: HT-29, 3 vs 14, 24 vs 3, 25 vs 22, 26 vs 3, 27 vs 23
[1] = In vivo mouse PK study, single IP injection; parameters: species or system male Swiss Albino mice; settings: mice, single IP 50 mg/kg; for tolerability: no clinical signs or adverse effects observed

Row | Structure (SMILES) | MEK1/2 degradation (Western blot, words) (MEK1/2) | antiproliferation potency compared to compound 28 (HT-29 cells) | also measured
1 | O=C1CCC(N2C(=O)c3cccc(NCCNCCCONC(=O)c4ccc(F)c(F)c4Nc4ccc(I)cc4F)c3C2=O)C(=O)N1 (centres unmarked) [Compound 28, N-(3-((2-((2-(2,6-Dioxopiperidin-3-yl)-1,3-dioxoisoindolin-4-yl)-amino)ethyl)amino)propoxy)-3,4-difluoro-2-((2-fluoro-4-iodophenyl)amino)benzamide] | did not show obvious MEK1/2 degradation |  | GI50 (HT-29 cells): 300 to 500 nM
2 | O=C1CCC(N2C(=O)c3cccc(NCCCCCNCCCONC(=O)c4ccc(F)c(F)c4Nc4ccc(I)cc4F)c3C2=O)C(=O)N1 (centres unmarked) [Compound 31, N-(3-((5-((2-(2,6-Dioxopiperidin-3-yl)-1,3-dioxoisoindolin-4-yl)-amino)pentyl)amino)propoxy)-3,4-difluoro-2-((2-fluoro-4-iodophenyl)amino)benzamide] |  | did not improve the antiproliferation potency | 
3 | Cc1ncsc1-c1ccc([C@H](C)NC(=O)[C@@H]2C[C@@H](O)CN2C(=O)[C@@H](NC(=O)CCCCCCCCCCCNCCCCONC(=O)c2ccc(F)c(F)c2Nc2ccc(I)cc2F)C(C)(C)C)cc1 [Compound 27, (2S,4R)-1-((S)-22-(tert-Butyl)-1-(3,4-difluoro-2-((2-fluoro-4-iodophenyl)amino)phenyl)-1,20-dioxo-3-oxa-2,8,21-triazatricosan-23-oyl)-4-hydroxy-N-((S)-1-(4-(4-methylthiazol-5-yl)phenyl)ethyl)pyrrolidine-2-carboxamide] |  |  | clearance comparison [1]: cleared more slowly than compound 24; plasma exposure comparison ([1]; 8 h period, 50 mg/kg): better plasma exposure than compound 24; also recorded: higher than that of the previously published MEK degrader 3; tolerability [1]: very well tolerated
4 | O=C1CCC(N2C(=O)c3cccc(NCCCCCCNCCCONC(=O)c4ccc(F)c(F)c4Nc4ccc(I)cc4F)c3C2=O)C(=O)N1 (centres unmarked) [Compound 32, N-(3-((6-((2-(2,6-Dioxopiperidin-3-yl)-1,3-dioxoisoindolin-4-yl)-amino)hexyl)amino)propoxy)-3,4-difluoro-2-((2-fluoro-4-iodophenyl)amino)benzamide] |  | did not improve the antiproliferation potency | 
5 | Cc1ncsc1-c1ccc(CNC(=O)[C@@H]2C[C@@H](O)CN2C(=O)[C@@H](NC(=O)CCCCCCCNCCCONC(=O)c2ccc(F)c(F)c2Nc2ccc(I)cc2F)C(C)(C)C)cc1 [Compound 11, (2S,4R)-1-((S)-17-(tert-Butyl)-1-(3,4-difluoro-2-((2-fluoro-4-iodophenyl)amino)phenyl)-1,15-dioxo-3-oxa-2,7,16-triazaoctadecan-18-oyl)-4-hydroxy-N-(4-(4-methylthiazol-5-yl)benzyl)pyrrolidine-2-carboxamide] | effectively degraded MEK1 and MEK2 proteins |  | 
6 | Cc1ncsc1-c1ccc(CNC(=O)[C@@H]2C[C@@H](O)CN2C(=O)[C@@H](NC(=O)CCCCCCCCCNCCCONC(=O)c2ccc(F)c(F)c2Nc2ccc(I)cc2F)C(C)(C)C)cc1 [Compound 13, (2S,4R)-1-((S)-19-(tert-Butyl)-1-(3,4-difluoro-2-((2-fluoro-4-iodophenyl)amino)phenyl)-1,17-dioxo-3-oxa-2,7,18-triazaicosan-20-oyl)-4-hydroxy-N-(4-(4-methylthiazol-5-yl)benzyl)pyrrolidine-2-carboxamide] | effectively degraded MEK1 and MEK2 proteins |  | 
7 | Cc1ncsc1-c1ccc([C@H](C)NC(=O)[C@@H]2C[C@@H](O)CN2C(=O)[C@@H](NC(=O)CCCCCCCCCCNCCCCONC(=O)c2ccc(F)c(F)c2Nc2ccc(I)cc2F)C(C)(C)C)cc1 [Compound 26, (2S,4R)-1-((S)-21-(tert-Butyl)-1-(3,4-difluoro-2-((2-fluoro-4-iodophenyl)amino)phenyl)-1,19-dioxo-3-oxa-2,8,20-triazadocosan-22-oyl)-4-hydroxy-N-((S)-1-(4-(4-methylthiazol-5-yl)phenyl)ethyl)pyrrolidine-2-carboxamide] |  |  | antiproliferation potency improvement over comparator (HT-29 cells): ~3 fold
8 | Cc1ncsc1-c1ccc([C@H](C)NC(=O)[C@@H]2C[C@@H](O)CN2C(=O)[C@@H](NC(=O)CCCCCCCCCNCCCCONC(=O)c2ccc(F)c(F)c2Nc2ccc(I)cc2F)C(C)(C)C)cc1 [Compound 25, (2S,4R)-1-((S)-20-(tert-Butyl)-1-(3,4-difluoro-2-((2-fluoro-4-iodophenyl)amino)phenyl)-1,18-dioxo-3-oxa-2,8,19-triazahenicosan-21-oyl)-4-hydroxy-N-((S)-1-(4-(4-methylthiazol-5-yl)phenyl)ethyl)pyrrolidine-2-carboxamide] |  |  | antiproliferation potency improvement over comparator (HT-29 cells): about 4 fold
9 | O=C1CCC(N2C(=O)c3ccc(NCCCCCCCNCCCONC(=O)c4ccc(F)c(F)c4Nc4ccc(I)cc4F)cc3C2=O)C(=O)N1 (centres unmarked) [Compound 44, N-(3-((7-((2-(2,6-Dioxopiperidin-3-yl)-1,3-dioxoisoindolin-5-yl)amino)heptyl)amino)propoxy)-3,4-difluoro-2-((2-fluoro-4-iodophenyl)amino)benzamide] | significantly degraded both MEK1 and MEK2 proteins |  | GI50 (HT-29 cells): 300 to 500 nM
10 | O=C1CCC(N2C(=O)c3ccc(NCCOCCOCCOCCOCCNCCCONC(=O)c4ccc(F)c(F)c4Nc4ccc(I)cc4F)cc3C2=O)C(=O)N1 (centres unmarked) [Compound 49, N-((1-((2-(2,6-Dioxopiperidin-3-yl)-1,3-dioxoisoindolin-5-yl)amino)-3,6,9,12-tetraoxa-15-azaoctadecan-18-yl)oxy)-3,4-di-fluoro-2-((2-fluoro-4-iodophenyl)amino)benzamide] | significantly degraded both MEK1 and MEK2 proteins |  | GI50 (HT-29 cells): 300 to 500 nM
11 | Cc1ncsc1-c1ccc([C@H](C)NC(=O)[C@@H]2C[C@@H](O)CN2C(=O)[C@@H](NC(=O)CCCCCCCCCCNCCCONC(=O)c2ccc(F)c(F)c2Nc2ccc(I)cc2F)C(C)(C)C)cc1 [Compound 3] |  |  | antiproliferation potency improvement over comparator (HT-29 cells): 3 fold
12 | O=C1CCC(N2C(=O)c3cccc(NCCCCCCCCNCCCONC(=O)c4ccc(F)c(F)c4Nc4ccc(I)cc4F)c3C2=O)C(=O)N1 (centres unmarked) [Compound 34, N-(3-((8-((2-(2,6-Dioxopiperidin-3-yl)-1,3-dioxoisoindolin-4-yl)-amino)octyl)amino)propoxy)-3,4-difluoro-2-((2-fluoro-4-iodophenyl)amino)benzamide] |  | did not improve the antiproliferation potency | 
13 | O=C1CCC(N2C(=O)c3ccc(NCCCNCCCONC(=O)c4ccc(F)c(F)c4Nc4ccc(I)cc4F)cc3C2=O)C(=O)N1 (centres unmarked) [Compound 40, N-(3-((3-((2-(2,6-Dioxopiperidin-3-yl)-1,3-dioxoisoindolin-5-yl)amino)propyl)amino)propoxy)-3,4-difluoro-2-((2-fluoro-4-iodophenyl)amino)benzamide] | did not show obvious MEK1/2 degradation |  | GI50 (HT-29 cells): 300 to 500 nM
14 | O=C1CCC(N2C(=O)c3cccc(NCCCNCCCONC(=O)c4ccc(F)c(F)c4Nc4ccc(I)cc4F)c3C2=O)C(=O)N1 (centres unmarked) [Compound 29, N-(3-((3-((2-(2,6-Dioxopiperidin-3-yl)-1,3-dioxoisoindolin-4-yl)-amino)propyl)amino)propoxy)-3,4-difluoro-2-((2-fluoro-4-iodophenyl)amino)benzamide] |  | did not improve the antiproliferation potency | 
15 | O=C1CCC(N2C(=O)c3cccc(NCCCCCCCNCCCONC(=O)c4ccc(F)c(F)c4Nc4ccc(I)cc4F)c3C2=O)C(=O)N1 (centres unmarked) [Compound 33, N-(3-((7-((2-(2,6-Dioxopiperidin-3-yl)-1,3-dioxoisoindolin-4-yl)-amino)heptyl)amino)propoxy)-3,4-difluoro-2-((2-fluoro-4-iodophenyl)amino)benzamide] |  | did not improve the antiproliferation potency | 
16 | Cc1ncsc1-c1ccc([C@H](C)NC(=O)[C@@H]2C[C@@H](O)CN2C(=O)[C@@H](NC(=O)CCCCCCCCCCN(C)CCCONC(=O)c2ccc(F)c(F)c2Nc2ccc(I)cc2F)C(C)(C)C)cc1 [Compound 24, (2S,4R)-1-((S)-20-(tert-Butyl)-1-(3,4-difluoro-2-((2-fluoro-4-iodophenyl)amino)phenyl)-7-methyl-1,18-dioxo-3-oxa-2,7,19-triazahenicosan-21-oyl)-4-hydroxy-N-((S)-1-(4-(4-methylthiazol-5-yl)phenyl)ethyl)pyrrolidine-2-carboxamide] |  |  | tolerability [1]: very well tolerated
17 | O=C1CCC(N2C(=O)c3ccc(NCCCCCCCCNCCCONC(=O)c4ccc(F)c(F)c4Nc4ccc(I)cc4F)cc3C2=O)C(=O)N1 (centres unmarked) [Compound 45, N-(3-((8-((2-(2,6-Dioxopiperidin-3-yl)-1,3-dioxoisoindolin-5-yl)amino)octyl)amino)propoxy)-3,4-difluoro-2-((2-fluoro-4-iodophenyl)amino)benzamide] | significantly degraded both MEK1 and MEK2 proteins |  | 
18 | O=C1CCC(N2C(=O)c3cccc(NCCCCNCCCONC(=O)c4ccc(F)c(F)c4Nc4ccc(I)cc4F)c3C2=O)C(=O)N1 (centres unmarked) [Compound 30, N-(3-((4-((2-(2,6-Dioxopiperidin-3-yl)-1,3-dioxoisoindolin-4-yl)-amino)butyl)amino)propoxy)-3,4-difluoro-2-((2-fluoro-4-iodophenyl)amino)benzamide] |  | did not improve the antiproliferation potency | 
19 | O=C1CCC(N2C(=O)c3ccc(NCCCCCNCCCONC(=O)c4ccc(F)c(F)c4Nc4ccc(I)cc4F)cc3C2=O)C(=O)N1 (centres unmarked) [Compound 42, N-(3-((5-((2-(2,6-Dioxopiperidin-3-yl)-1,3-dioxoisoindolin-5-yl)amino)pentyl)amino)propoxy)-3,4-difluoro-2-((2-fluoro-4-iodophenyl)amino)benzamide] | significant selectivity at degrading MEK2 over MEK1 |  | GI50 (HT-29 cells): 300 to 500 nM
